Experimental data reported in patent US20240209456A1, “METHODS AND COMPOSITIONS RELATED TO CELL-CYCLE RNA's” (BETH ISRAEL DEACONESS MEDICAL CENTER, priority 2021, published 2024).
*1 amine or outer side, *2 acyl side, *3 side chain or, on linkers, in order; H or OH if unused. Where a SMILES comes first, the peptide text is derived from it. Bridges are numbered along the chain shown (N, C = ends). Roman numbers before positions name the chains, in order. [ ]: non-standard residue; d: D form. Actinocin(9to1) = Cc1c2oc3c(C)ccc(C(=O)[*:1])c3nc-2c(C(=O)[*:2])c(N)c1=O; NMeV = CN[C@H](C(=O)O)C(C)C; Sar = CNCC(=O)O

System: acH2A.Z
Test: ChIP-Seq with acH2A.Z antibody, occupancy at TSSs
Type: cell-based, human
Details: for number of TSS with at least / greater than 2-fold drop in acH2A.Z occupancy: HL-60, 2 hr treatment, vs cells without treatment, 38,512 TSS compared; for acH2A.Z enrichment at the TSS, genome-wide / acH2A.Z peak intensity ratio, MYB locus (DMSO = 0.62, ActD = 1.0) / acH2A.Z peak intensity ratio, PU.1 locus (DMSO = 1.0) / acH2A.Z peak intensity ratio, c-MYC locus (DMSO = 1): HL-60, 2 hr; for acH2A.Z enrichment at the TSS, genome-wide: vs mock-treated (DMSO), FIG. 4C; for acH2A.Z peak intensity ratio, MYB locus (DMSO = 0.62, ActD = 1.0) / acH2A.Z peak intensity ratio, PU.1 locus (DMSO = 1.0) / acH2A.Z peak intensity ratio, c-MYC locus (DMSO = 1): [DMSO/DRB/ActD]
Source text: Two transcription inhibitors, Actinomycin D (ActD; RNA Polymerase I, II and III inhibitor) and 5,6-Dichlorobenzimidazole 1-β-D-ribofuranoside (DRB; RNAPII Inhibitor), were used at concentrations sufficient to block both RNA Polymerases II and III. Cells were synchronized with a double thymidine block and released into S Phase with ActD/DRB added. The rationale behind the use of ActD and DRB is: (i) to globally assess the effect of SPEARs suppression over a short time frame; (ii) to test effects resulting from the two different pathways triggered by ActD and DRB; and (iii) to take advantage of the reversibility of DRB treatment. […] Two hours after drug treatment, cells were crosslinked and subjected to ChIP-Seq analyses. […] Relative changes were then investigated in the footprints of unmodified H2A.Z and acH2A.Z in the vicinity of TSSs that result from DRB- and ActD-induced inhibition of SPEARs. The enrichments of ChIP-Seq signals for H2A.Z and acH2A.Z around 38,512 TSS (defined in the hg38 UCSC canonical gene table) following drug treatment were then compared with their occupancy in mock-treated (DMSO) cells. […] ActD-treated cells followed this pattern with a greater than 2-fold decrease in the levels of acH2A.Z at 6,283 TSS compared to untreated samples. […] For the c-MYC and PU1 loci, respectively, the ratios of control (DMSO) to drug treated H2A.Z peak intensities were: [DMSO/DRB/ActD]^c-MYC=1/0.76/0.67 and [DMSO/DRB/ActD]^PU.1=1/0.87/0.82; and the ratios of control (DMSO) to drug treated acH2A.Z peak intensities were: [DMSO/DRB/ActD]^c-MYC=1/0.62/0.36 and [DMSO/DRB/ActD]^PU.1=1.0/0.25/0.13. […] For MYB the ratios of control (DMSO) to drug treated acH2A.Z peak intensities are: [DMSO/DRB/ActD]^MYB=0.62/0.89/1.0, which corresponds to the increases in its SPEARs levels (FIG. 10C).
Double Thymidine block (early S-phase block) was carried out as described. Briefly, HL-60 cells were grown overnight to 70-80% confluence, washed twice with 1×PBS and cultured in DMEM (10% FCS)+2.5 mM Thymidine for 18 h (first block). Thymidine was washed out with 1×PBS and cells were grown in DMEM (10% FCS). After 8 hrs cells were cultured in the presence of thymidine for 18 h (second block) and then released as described. Synchrony was monitored by flow cytometry analysis of propidium iodide-stained cells using a LSRII flow cytometer (BD Biosciences) at the Harvard Stem Cell Institute/Beth Israel Deaconess Center flow cytometry facility.
DRB and Actinomycin D treatments were carried out as described. Briefly, after release from double thymidine block, HL-60 cells were treated with 100 μM of 5,6-Dichlorobenzimidazole 1-β-D-ribofuranoside (DRB) (Sigma Aldrich) or 0.8 μM of Actinomycin D (Sigma Aldrich) as indicated at each time point.
ChIP was performed as follows. Cells were crosslinked with 1% formaldehyde for 10 min at r.t. Pellets of 1×10^6 cells were used for immunoprecipitation and lysed for 10 minutes on ice and chromatin fragmented using a Branson 250 digital sonicator. Each ChIP was performed with 4 ug of antibody, incubated overnight at 4° C. A 50/50 slurry of protein A and protein G Dynabeads was used to capture enriched chromatin, which was then washed before reverse-crosslinking and proteinase K digestion at 65° C. AMPure XP beads were used to clean up and isolate ChIP DNA for subsequent library construction. The following antibodies were used for ChIP: H2A.Z (Abcam ab4174, lot GR3176820-1), acH2A.Z (Abcam ab18262, lot GR306397-1), TIP60 antibody; and IgG (Abcam ab171870). Fold enrichment was calculated using the formula 2^(−ΔΔCt(ChIP/non-immune serum)). Primer sets used for ChIP are listed in Table 2. nRIP was performed and crosslinked nuclei were collected as follows: 1. 60×10^6 HL-60 cells were crosslinked with 1% formaldehyde (formaldehyde solution, freshly made: 50 mM HEPES-KOH; 100 mM NaCl; 1 mM EDTA; 0.5 mM EGTA; 11% formaldehyde) for 10 min at room temperature. […]

Row | SMILES | number of TSS with at least / greater than 2-fold drop in acH2A.Z occupancy | acH2A.Z enrichment at the TSS, genome-wide | acH2A.Z peak intensity ratio, MYB locus (DMSO = 0.62, ActD = 1.0) | acH2A.Z peak intensity ratio, PU.1 locus (DMSO = 1.0) | acH2A.Z peak intensity ratio, c-MYC locus (DMSO = 1)
1 | Cc1c2oc3c(C)ccc(C(=O)N[C@@H]4C(=O)N[C@H](C(C)C)C(=O)N5CCC[C@H]5C(=O)N(C)CC(=O)N(C)[C@@H](C(C)C)C(=O)O[C@@H]4C)c3nc-2c(C(=O)N[C@@H]2C(=O)N[C@H](C(C)C)C(=O)N3CCC[C@H]3C(=O)N(C)CC(=O)N(C)[C@@H](C(C)C)C(=O)O[C@@H]2C)c(N)c1=O [ActD, Actinomycin D] (I: T[dV]P[Sar][NMeV] / II: T[dV]P[Sar][NMeV]; ester I:1-I:C, II:1-II:C; linker I:N-II:N via Actinocin(9to1)) | 6,283 TSS | drastic reduction | 1.0 | 0.13 | 0.36
2 | OC[C@H]1O[C@@H](n2cnc3cc(Cl)c(Cl)cc32)[C@H](O)[C@@H]1O [DRB, 5,6-Dichlorobenzimidazole 1-β-D-ribofuranoside] | 3,394 TSS | drastic reduction | 0.89 | 0.25 | 0.62
